One data set has as its system XDR-Mtb HRESKO. In words: microbe, parasite or virus in culture. The format is cell-based. The note with it: Mycobacterium tuberculosis.
Data set [1] has as its system DS-Mtb1 (drug sensitive clinical isolate #1). As to the kind of experiment: MIC against clinical strain DS-Mtb1. The note with it: Mycobacterium tuberculosis. The format is cell-based.
A further data set has as its system XDR-Mtb HREKO. In words: microbe, parasite or virus in culture. The class given is cell-based. The note with it: Mycobacterium tuberculosis.
The test system of a further data set is MDR-Mtb HREKP. As to the kind of experiment: microbe, parasite or virus in culture. The class given is cell-based. Conditions: Mycobacterium tuberculosis.
The test system of a further data set is MDR-Mtb HRERb. In words: microbe, parasite or virus in culture. The class given is cell-based. The note with it: Mycobacterium tuberculosis.
Data set [2] relates to DS-Mtb2 (drug sensitive clinical isolate #2). As to the kind of experiment: MIC against clinical strain DS-Mtb2. The format is cell-based. Conditions: Mycobacterium tuberculosis, 90% growth inhibition by optical density.
The next data set deals with MDR-Mtb HREZSKP. In words: microbe, parasite or virus in culture. The class given is cell-based. The note with it: Mycobacterium tuberculosis.
The nature of another data set: in vitro. The format is in vitro ADME.
In data set [3] the target is T1, CYP3A4 (Homo sapiens, UniProt P08684). In words: Time dependent inhibition of human CYP3A4. The note with it: at 10 μM.
The conditions of data set [4]: rat, microsomes.
Another data set can be described thus: in vivo. Conditions: rat, iv, 1 mg/kg.
The target of data set [5] is T1, CYP3A4. As to the kind of experiment: Human cytochrome P-450 inhibition, CYP 3A4. The note with it: panel of human cytochrome P-450 enzymes.
For the next data set, the system named is Mtb H37Rv. In words: MIC against replicating Mtb H37Rv, dual read-out. The format is cell-based. The note with it: Mycobacterium tuberculosis.
Data set [6] relates to sensitive, MDR and XDR clinical Mtb strains. The class given is cell-based, Mycobacterium tuberculosis. The note with it: range over the DS, MDR and XDR clinical strains of Table 2.

Values after ≈ are worked out from the molar mass of the structure shown. Values joined by “and” are separate entries in the source; they are usually repeats but may differ in a detail not shown here. Equal entries are not always repeated.

T1 sequence (P08684 whole entry): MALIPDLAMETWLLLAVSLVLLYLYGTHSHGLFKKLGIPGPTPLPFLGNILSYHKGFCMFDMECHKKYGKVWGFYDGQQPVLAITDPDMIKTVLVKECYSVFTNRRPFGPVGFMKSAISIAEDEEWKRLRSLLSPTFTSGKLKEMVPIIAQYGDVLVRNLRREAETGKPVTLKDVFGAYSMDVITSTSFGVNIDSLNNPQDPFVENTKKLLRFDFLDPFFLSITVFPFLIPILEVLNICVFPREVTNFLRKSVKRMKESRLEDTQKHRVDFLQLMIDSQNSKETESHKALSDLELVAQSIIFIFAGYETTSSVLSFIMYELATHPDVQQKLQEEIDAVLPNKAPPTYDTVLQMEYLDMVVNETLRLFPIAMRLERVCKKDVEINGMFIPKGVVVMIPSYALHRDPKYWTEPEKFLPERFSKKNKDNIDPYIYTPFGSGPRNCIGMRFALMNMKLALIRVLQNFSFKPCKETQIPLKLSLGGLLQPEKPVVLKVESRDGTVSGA

Take `Cc1ccc2nc(C)c(C(=O)NCc3ccccc3)n2c1` [Compound 9]: the MIC in the data set with XDR-Mtb HRESKO was < 0.01 µg/mL; in [1], 0.04 µM to 0.07 µM and 0.01 µg/mL to 0.02 µg/mL; in the data set with XDR-Mtb HREKO, < 0.01 µg/mL; against MDR-Mtb HREKP, < 0.01 µg/mL; with MDR-Mtb HRERb, 0.63 µg/mL (≈ 2.26 µM); in data set [2], < 0.01 µg/mL. The MIC in the data set with MDR-Mtb HREZSKP was < 0.01 µg/mL.
Usually fraction unbound stands for the share of the substance not bound to proteins or other matrix. One may read the clearance as the rate of elimination divided by the concentration. Read a high clearance as efficient removal. Usually inhibition stands for the share of the control response that was lost under treatment. High values mean a strong effect, low ones a weak effect. `Cc1ccn2c(C(=O)NCc3ncc(C(F)(F)F)cc3Cl)c(C)nc2c1` [Compound 13]: the MIC in the data set with XDR-Mtb HRESKO is 0.3 µg/mL (≈ 0.784 µM); in [1], 0.3 µg/mL (≈ 0.784 µM); in the data set on XDR-Mtb HREKO, 0.3 µg/mL (≈ 0.784 µM); in the data set with MDR-Mtb HREKP, 0.2 µg/mL (≈ 0.523 µM); against MDR-Mtb HRERb it was 13 µM to 26 µM and 5 µg/mL to 10 µg/mL; in data set [2], 0.3 µg/mL (≈ 0.784 µM). The molecule also yielded an MIC against MDR-Mtb HREZSKP of 2.5 µg/mL (≈ 6.53 µM). Moreover, in “in vitro”, the fraction unbound was determined as 0.089. In addition, the “time dependent inhibition of human CYP3A4” value at CYP3A4 [3] was “time dependent inhibitors”. Besides, the “% metabolized” value in [4] is on record as 19%. For the same molecule, the clearance in the data set “in vivo” was 25 mL/min/kg. At CYP3A4 [5], this molecule showed an inhibition at 10 µM of 0%.
Take `O=[N+]([O-])c1cn2c(n1)OC[C@@H](OCc1ccc(OC(F)(F)F)cc1)C2` [PA-824, reference compound]: the MIC in the data set on XDR-Mtb HRESKO is 0.3 µg/mL (≈ 0.835 µM); in [1] it was 0.5 µM to 0.9 µM and 0.2 µg/mL to 0.3 µg/mL; against XDR-Mtb HREKO it was 0.08 µg/mL (≈ 0.223 µM); against MDR-Mtb HREKP, 0.5 µM to 0.9 µM and 0.2 µg/mL to 0.3 µg/mL; against MDR-Mtb HRERb, 0.5 µM to 0.9 µM and 0.2 µg/mL to 0.3 µg/mL; in [2] it was > 5 µg/mL. The MIC in the data set on MDR-Mtb HREZSKP was 0.5 µM to 0.9 µM and 0.2 µg/mL to 0.3 µg/mL.
Take `Cc1ccn2c(C(=O)NCc3ccc(Oc4ccc(F)cc4)cc3)c(C)nc2c1` [Compound 18]: the MIC in the data set with XDR-Mtb HRESKO is < 0.01 µg/mL; in data set [1], < 0.01 µg/mL; against XDR-Mtb HREKO it was < 0.01 µg/mL; in the data set on MDR-Mtb HREKP, < 0.01 µg/mL; in the data set with MDR-Mtb HRERb, 0.31 µg/mL (≈ 0.796 µM); in the data set with Mtb H37Rv, < 0.005 µM. The MIC was < 0.01 µg/mL in data set [2]; 0.03 µM to 0.8 µM and 0.01 µg/mL to 0.3 µg/mL in the data set with MDR-Mtb HREZSKP. Also, the “time dependent inhibition of human CYP3A4” value on CYP3A4 [3] is given as “time dependent inhibitors”. In addition, in data set [6], the “MIC range against the clinical strains” value was <0.03 to 0.8 µM.
